# Measured values: patent publication US8603493B2, “Carbosilane dendrimers, preparation method thereof and use of same” (Dendrico, S.L., priority 2005, dated 2013)
# “Also recorded” adds a separate entry of the source.
# Legend:
# [1] = test system: U87-MG cells; experiment: Toxicity in U-87-MG cells: LDH in the supernatant; settings: 24 hours
# Text: The concentrations and volumes of each one of these compounds were the same used in the test performed with MTT. The commercial kit Cytotoxicity Detection KitPLUS (LDH), from Roche Applied Science was used to determine lactate dehydrogenase, following the manufacturer's instructions.
# [2] = target: T1, Insulin (recombinant human insulin) (Homo sapiens, UniProt P01308); experiment: Dendrimer-drug binding test (polyacrylamide gel delay), insulin; settings: dendrimer 100 μM, insulin 1, 0.5, 0.1, 0.05 U, 37° C., 1 hour
# T1 construct: Despite having its molecular weight (5825 g/mol) and establishing an average of 4 (−) charges; purchased Novo Nordisk Actrapid (trade name; no catalogue number given)
# T1 sequence (P01308 25-54 limits assumed): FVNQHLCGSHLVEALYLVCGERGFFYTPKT
# T1 sequence (P01308 90-110 limits assumed): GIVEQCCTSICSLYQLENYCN
# Procedure: (§1) The drugs chosen to perform the tests, all with at least one negative charge at physiological pH, were: • Methotrexate (sodium salt): • 1 charge (−) • Supplying laboratory: Almirall • Presentation: 25 mg/ml solution • Excipients: NaCl, NaOH, HCl, double-distilled H2O • Heparin (sodium salt) • Several charges (−) • Supplying laboratory: Rovi • Presentation: 10 mg/ml solution (1000 U) • Excipients: methyl p-oxybenzoate, propyl p-oxybenzoate, NaCl, double-distilled H2O • Insulin (recombinant human insulin) • 4 charges (−) • Supplying laboratory: Novo Nordisk • Product trade name: Actrapid • Presentation: 3.5 mg/ml solution (100 U) • Excipients: ZnCl2, HCl, NaOH, double-distilled H2O
# (§2) The determination of the bond and complex formation between the dendrimer and the drug was performed by evaluating the delay in the polyacrylamide gel of the dendrimer bound to drug with respect to the free dendrimer: • Complex formation: It is performed in a final volume of the mixture of 30 μl, which is the maximum volume to load in the gel. To do this, one starts from the necessary quantity of dendrimer that provides a perfectly identifiable band by staining with silver nitrate in the gel once the electrophoresis has been carried out: 20 μl of a 100 μM solution, which corresponds to […] molecules. The drug is added in the 10 μl at different concentrations to produce the chosen (+) and (−) charge ratios, also determining the quantity of drug molecules present in the mixture. An incubation of said mixture was performed at 37° C. during 1 hour to give time for a more thermodynamically stable complex to form, although more time may be needed for its formation. Each complex is performed in duplicate. • Electrophoresis and gel staining: The gels used were 7.5% polyacrylamide/bisacrylamide, prepared with 1.5M Tris pH 8.8. Each electrophoresis was carried out at 90 volts during 4 hours, after which the gel was stained with silver nitrate and photographed. […]
# [3] = Dendrimer-drug binding test (polyacrylamide gel delay), heparin; settings: dendrimer 100 μM, heparin 10, 1, 0.5, 0.1 U, 37° C., 1 hour
# Procedure: as §1, §2
# [4] = test system: SK-N-MC cells; experiment: Toxicity in SK-N-MC cells: test with MTT; type: cell-based; settings: 24 hours, 1, 5, 10 μM
# [5] = test system: SK-N-MC cells; experiment: Proliferation of SK-N-MC cells incubated with dendrimers (MTS); type: cell-based; settings: 3 days
# Procedure: (§3) The tests were performed with the dendrimers NN (2G-[Si(O(CH2)2N(Me)(CH2)2NMe3^+I^−)]8 (26)) and NN16 (2G-[Si(O(CH2)2N^+(Me)2(CH2)2NMe3^+2I^−)]8 (36)). The transfection tests were performed with the anti-rev RF ODN (SEQ ID NO:2). The culture medium was DMEM+10% bovine foetal serum.
# (§4) Different experiments were performed, one with SK-N-MC cells and another with U-87-MG cells, which studied the effect of the dendrimers on the proliferation of said lines. For this, 7000 cells/well were plated of the corresponding in a 96-well dish. […] As positive proliferation control, cells were incubated with 20 μg/ml of LPS and, as positive death induction control, cells were used incubated with 7% DMSO. As negative control untreated cells were used.
# [6] = test system: U87-MG cells; experiment: Transfection of U87-MG cells mediated by dendrimers (flow cytometry); type: cell-based; settings: dendriplex with anti-rev oligonucleotide 250 nM, − charge/+ charge ratio 1:8, 24 hours
# Procedure: (§5) 100000 cells/well were plated of the corresponding cell line in a 24-well plate with 500 μl of medium.
# (§6) Dendriplexes were formed with dendrimers NN and NN16 and the fluorescent anti-rev antisense oligonucleotide in a total volume of 75 μl of medium without serum, wherein the anti-rev oligonucleotide was mixed at a concentration 250 nM and the corresponding dendrimer in different proportions, so that different − charge/+ charge ratios were obtained: 1:1, 1:2, 1:4 and 1:8. The mixture was incubated during half an hour at ambient temperature and then it was added to the corresponding well to incubate the cells with dendriplexes.
# (§7) After 24 hours of incubation, the cells were removed from the well, they were washed twice with PBS, they were incubated for 1 minute with acid glycine to remove the possible moieties of dendriplexes which may have remained adhered on the cell membrane, and a final wash was performed with PBS. Finally, the cells were resuspended in 500 μl of PBS and the quantity of fluorescent oligonucleotide inside the cell was quantified by flow cytometry.
# [7] = test system: SK-N-MC cells; experiment: Transfection of SK-N-MC cells mediated by dendrimers (flow cytometry); type: cell-based; settings: dendriplex with anti-rev oligonucleotide 250 nM, − charge/+ charge ratio 1:4, 24 hours
# Procedure: as §5, §6, §7
# [8] = test system: U87-MG cells; experiment: Toxicity in U-87-MG cells: tests with MTT
# Procedure: A test with U-87-MG cells was performed, wherein the effect of the dendrimers on the viability of said lines was studied at different times. To do this, 15000 (24 hour incubations), 7000 (3 day incubations) or 1500 (7 day incubations) cells per well were plated in 96-well plates. The cells were incubated with different concentrations (1 μM, 5 μM and 10 μM) either NN dendrimer or NN16 dendrimer, during 24 hours, 3 days and 7 days. […] Two different positive controls were also used: cells treated with 7% DMSO and cells treated with 1% Triton X-100.
# In the case of Superfect, three doses were tested, the optimum dose recommended by the manufacturer (2.5 μl), a lower dose (1.25 μl) and another higher dose (5 μl). With regard to Polyfect, specifically designed for adherent cells, the three doses tested were: optimum dose (0.6 μl), lower dose (0.3 μl) and higher dose (1.2 μl).
# After each corresponding incubation time, a test was performed with MTT analogous to that described in Example 38. At the absorbance value obtained in the untreated cells (C−) it was given the value of 1 and the moiety of the absorbencies produced was used to refer to it.
# [9] = Dendrimer-drug binding test (polyacrylamide gel delay), methotrexate; settings: dendrimer 100 μM, charge ratios 1+/1− to 8+/1−, 37° C., 1 hour
# Procedure: as §1, §2
# [10] = test system: U87-MG cells; experiment: Proliferation of U-87-MG cells incubated with dendrimers (MTS); type: cell-based; settings: 1 μM, 5 μM and 10 μM, 3 days
# Procedure: as §3, §4
structure (smiles),measurement,setting,value
"C[N+](C)(C)CC[N+](C)(C)CCO[Si](C)(C)CCC[Si](C)(CCC[Si](CCC[Si](C)(CCC[Si](C)(C)OCC[N+](C)(C)CC[N+](C)(C)C)CCC[Si](C)(C)OCC[N+](C)(C)CC[N+](C)(C)C)(CCC[Si](C)(CCC[Si](C)(C)OCC[N+](C)(C)CC[N+](C)(C)C)CCC[Si](C)(C)OCC[N+](C)(C)CC[N+](C)(C)C)CCC[Si](C)(CCC[Si](C)(C)OCC[N+](C)(C)CC[N+](C)(C)C)CCC[Si](C)(C)OCC[N+](C)(C)CC[N+](C)(C)C)CCC[Si](C)(C)OCC[N+](C)(C)CC[N+](C)(C)C [NN16, 2G-[Si(O(CH2)2N^+(Me)2(CH2)2NMe3^+2I^−)]8]","cytotoxicity (LDH), comparison",[1],greater cytotoxicity as their concentration increases; also recorded: less toxic than NN
same,dendrimer-insulin complex formation (delay in gel),[2],complex is formed
same,dendrimer-heparin complex formation (delay in gel),[3],complex is formed
same,"toxicity (MTT), comparison",[4],least toxicity
same,effect on cell proliferation (MTS),[5]; 1 μM and 5 μM,do not produce toxicity nor cell proliferation
same,effect on cell proliferation (MTS),[5]; 10 μM,toxic
same,percentage of cells transfected,[6],97.8%
same,percentage of cells transfected (maximum transfection),[7],82.3%
same,"viability (MTT), untreated cells (C−) = 1","[8]; 3 days, any one of the three concentrations (1, 5, 10 μM)",~0.8
same,"viability (MTT), untreated cells (C−) = 1","[8]; 7 days, 10 μM",0.7
same,dendrimer-methotrexate complex formation (delay in gel),[9],complex is formed
same,effect on cell proliferation (MTS),[10],neither induce proliferation nor cell death
